Common to all, as to type: binding
The target of experiment [1] is T1, PA-IL (LecA) (Pseudomonas aeruginosa, UniProt Q05097).
T1 construct: freeze-dried; tetramer, one sugar site with one calcium ion per monomer
Description: 1H STD NMR, reference ligand. The note with it: 4 mM ligand, 40 μM lectin, D2O, 20 mM Tris-d11, 150 mM NaCl, 5 mM CaCl2, pH 7.5, 283 K.

The next experiment deals with T2, PA-IIL (LecB) (Pseudomonas aeruginosa, UniProt Q9HYN5).
T2 construct: freeze-dried; tetramer, one sugar site with two calcium ions per monomer
T2 sequence (Q9HYN5 entry or part of it): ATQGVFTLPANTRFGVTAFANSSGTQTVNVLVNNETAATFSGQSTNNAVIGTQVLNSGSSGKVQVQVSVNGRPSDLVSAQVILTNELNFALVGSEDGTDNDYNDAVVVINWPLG
Description: isothermal titration calorimetry, single-site model. To be noted: 0.1 M Tris/HCl, 500 μM CaCl2, pH 7.5, 25 °C. The source says:
isothermal titration calorimetry, single-site model on PA-IIL (LecB)
For orientation: In ITC the heat of successive injections is recorded.

For experiment [2], the target named is T1, PA-IL (LecA). Described as above. The note with it: 0.1 M Tris/HCl, 500 μM CaCl2, pH 7.5, 25 °C. The source says:
isothermal titration calorimetry, single-site model on PA-IL (LecA)

T1 sequence (Q05097 2-122): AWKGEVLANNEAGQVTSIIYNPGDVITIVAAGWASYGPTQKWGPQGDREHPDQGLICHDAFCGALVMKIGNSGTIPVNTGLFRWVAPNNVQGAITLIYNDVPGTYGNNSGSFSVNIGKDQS

With `CO[C@H]1O[C@H](CO)[C@H](O)[C@H](O)[C@H]1O` [Meα-D-Gal], at PA-IL (LecA) [1], the STD signal entry is reported as “The STD signals (highlighted by red ellipsoids) confirm the binding of Meα-D-Gal”.

For the compound `C#CCO[C@@H]1O[C@H](CO)[C@@H](O[C@@H]2O[C@H](CO)[C@H](O)[C@H](O)[C@H]2O)[C@H](O[C@@H]2O[C@@H](C)[C@@H](O)[C@@H](O)[C@@H]2O)[C@H]1O` [compound 6, Compound 6], the “Ka [10^4 M^-1]” value on PA-IIL (LecB) (n = 1.12) was 344 ± 124 10^4 M^-1; on PA-IL (LecA) [2] (n = 0.51), 59 ± 28.4 10^4 M^-1.

Turning to `C[C@@H]1O[C@@H](O[C@@H]2[C@@H](O)[C@H](OCc3cn(CCn4cc(COCC(COCc5cn(CCn6cc(CO[C@@H]7O[C@H](CO)[C@@H](O[C@@H]8O[C@H](CO)[C@H](O)[C@H](O)[C@H]8O)[C@H](O[C@@H]8O[C@@H](C)[C@@H](O)[C@@H](O)[C@@H]8O)[C@H]7O)nn6)nn5)(COCc5cn(CCn6cc(CO[C@@H]7O[C@H](CO)[C@@H](O[C@@H]8O[C@H](CO)[C@H](O)[C@H](O)[C@H]8O)[C@H](O[C@@H]8O[C@@H](C)[C@@H](O)[C@@H](O)[C@@H]8O)[C@H]7O)nn6)nn5)COCc5cn(CCn6cc(CO[C@@H]7O[C@H](CO)[C@@H](O[C@@H]8O[C@H](CO)[C@H](O)[C@H](O)[C@H]8O)[C@H](O[C@@H]8O[C@@H](C)[C@@H](O)[C@@H](O)[C@@H]8O)[C@H]7O)nn6)nn5)nn4)nn3)O[C@H](CO)[C@H]2O[C@@H]2O[C@H](CO)[C@H](O)[C@H](O)[C@H]2O)[C@@H](O)[C@H](O)[C@@H]1O` [compound 8, Compound 8], the “Ka [10^4 M^-1]” value was 257 ± 66.9 10^4 M^-1 on PA-IIL (LecB) (n = 1.12 pH, buffer, temperature, tetravalent ligand, n = 1.1) and 496 ± 104 10^4 M^-1 on PA-IL (LecA) [2] (n = 0.51 pH, buffer, temperature, tetravalent ligand, n = 0.89).

Values taken from article PMC9782601, “A Fucosylated Lactose-Presenting Tetravalent Glycocluster Acting as a Mutual Ligand of Pseudomonas aeruginosa Lectins A (PA-IL) and B (PA-IIL)—Synthesis and Interaction Studies” (International Journal of Molecular Sciences, 2022).
